What was measured:
Type in all cases: cell-based, mouse
[1] = system: CK1750 and SC241 cell lines; assay: Flow cytometry screen of adenocarcinoma cell lines for stem cell surface marker Sca-1 with a small molecule library
Source text: The X axis crosses at the level of Sca-1 fluorescence measured in cells with the vehicle only control (DMSO). Bars up thus represent an increase in Sca-1 and Bars down represent a decrease. Each bar represents a different chemical treatment.
The CK1750 and SC241 cell lines derived from K-ras; p53fl/fl mouse adenocarcinoma tumors are highly enriched for Sca-1 and CD24. These cell lines were screened for factors that alter the expression of Sca1, CD24 or both markers, using the Stem Cell Core's Pilot Known Bioactives library, a small molecule library enriched in inhibitors of chromatin regulators (FIG. 1).

BASC 3D co-culture = BASC 3D co-culture resorted by FACS for Sca-1 expressing cells; details: 3D cultures after 3 weeks growth, vs DMSO control (FIG. 2)
[2] = system: BASC (Bronchioalveolar Stem Cell) cultures; assay: 3D organoid culture of BASC: organoid morphology, lineage and staining
Source text: (§1) Quantification and statistical analysis of organoid morphologies from cultures grown with UNC0638 or DMSO control. *=P<0.05, two tailed independent samples T-test
Graphs depicts quantification of organoid lineage proportions in UNC0638 and DMSO treated cultures. On the top graph bronchiolar and tracheobronichiolar organoids are counted separately. On the bottom graph these organoids are counted together. *=P<0.05, two tailed independent samples T-test
FIG. 6 depicts graphs of the quantification of PAS and Alcian Blue Stained Organoids in DMSO and UNC0638 treated Organoids.
(§2) AT2 cells are only capable of producing alveolar morphological organoids (FIG. 3).
(§3) UNC0638 treatment reduces the proportion of Sca-1+ve alveolar organoids and increases the proportion of small, undifferentiated organoids. (FIG. 4) 250 nM UNC0638 reduces alveolar colony formation and increase ciliated organoid formation (FIG. 5).
Organoids with visible movement are observed in control cultures, but are more frequent in 250 nM UNC0638 treated cultures. […] Some organoids in UNC0638 cultures (and some rare organoids in DMSO cultures) can be seen to be visibly moving. They have currents in their lumen causing material within to move around. […] Currents are always counter clockwise, consistent with direction of cilia.
Ciliated organoids have large amounts of material that stain for PAS and Alcian Blue, like mucus produced by goblet cells in the lung upper airways. This material is likely what can be seen to revolve in the organoids with interior lumen currents. G9a/G1p inhibition increases the proportion and overall number of PAS/Alcian Blue Staining Organoids (FIG. 6). PAS stained cells resemble goblet cells that produce mucus in the upper airway. […] This is precisely the same as the lung upper airways which have a lower layer of p63+ Keratin 5+ stem cells known as basal cells.

[3] = system: AT2 (Alveolar Type 2) cultures; assay: 3D organoid culture of AT2 cells: organoid formation; details: AT2 cultures (FIG. 3)
Source text: as §2

[4] = system: Sca-1−ve and Sca-1+ve sorted cells; assay: Quantification of organoid morphologies from Sca-1 sorted cells
Method: as §1, §3

For `COc1cc2c(NC3CCN(C(C)C)CC3)nc(C3CCCCC3)nc2cc1OCCCN1CCCC1` [UNC0638], the “change in Sca-1 on the cell surface” value ([1]; among library chemicals, vs DMSO vehicle control (FIG. 1)) was “largest increase in Sca-1”, the “enrichment for high Sca-1 expressing, TPC-like cells” value ([1]; flow cytometry screen of adenocarcinoma cell lines) was “enriches for high Sca-1 expressing, TPC-like cells” and the “Sca-1 expressing cells among stem cell-derived cells” value (BASC 3D co-culture) was “many more Sca-1 expressing cells”. The alveolar colony formation ([2]; 250 nM (FIG. 5)) was “reduces”, the ciliated organoid formation ([2]; 250 nM (FIG. 5)) was “increase” and the “organoids with visible movement” value ([2]; 250 nM, vs control cultures) was “more frequent”. For the same compound, the “organoids with alveolar morphology” value ([2]; BASC cultures (FIG. 3)) was “significantly fewer”, the “organoids that resemble the large airways of the lung” value ([2]; lung stem cell cultures, beating multiciliated, goblet like and P63+ Kertatin 5+ cells) was “more organoids” and the “H&E staining of Acetylated tubulin positive organoids” value ([2]; treated cultures) was “many of the cells are muticiliated”. The “organoids that stained with Acetylated tubulin, a marker of Ciliated cells” value ([2]; treated cultures vs control) was “significantly more”, the alveolar organoid differentiation ([2]; vs DMSO control, *=P<0.05, two tailed independent samples T-test (FIG. 4, FIG. 5)) was “reduces” and the ciliated organoid differentiation ([2]; vs DMSO, *=P<0.05, two tailed independent samples T-test (FIG. 5)) was “increases”. The number of organoids [3] was “significantly fewer organoids”, the “proportion of alveolar organoids” value ([4]; Sca-1+ve (FIG. 4)) was “reduces” and the “proportion of small, undifferentiated organoids” value ([4]; Sca-1+ve (FIG. 4)) was “increases”. For the same compound, the organoid formation ([4]; Sca-1−ve sorted cells (FIG. 4)) was “significantly reduces”.
